In patent publication US10287328B2, “Treatment of diabetes, toll-like receptor 4 modulators and methods for using the same” (KeMyth Biotech Co., Ltd., priority 2016, dated 2019):

Columns and labels:
[1] = tested on: sICAM-1, sVCAM-1, sE-selectin; assay: Serum sICAM-1, sVCAM-1 and sE-selectin (ELISA) in HFD-induced type 2 diabetic rats; type: in vivo, Sprague-Dawley rats; conditions: STZ-injected HFD-fed rats, compared to STZ+vehicle
Experimental: (§1) The Sprague-Dawley rats were allocated to two dietary regimens by feeding either normal or HFD ad libitum, for the initial period of 2 weeks. After 2 weeks of dietary manipulation, the group of rats fed HFD were injected intraperitoneally (i.p.) with a low dose of STZ (35 mg/kg b.w.), while the respective control rats were given vehicle citrate buffer (pH 4.5) in a dose volume of 1 mL/kg, i.p. Seven days after STZ injection, rats were screened for blood glucose levels. Overnight fasted (10-12 hours) animals were given glucose (3 g/kg b.w.) by gastric intubation. After 2 hours of oral administration, blood samples were taken from lateral tail vein, left to coagulate and centrifuged; then serum glucose concentration was measured. Rats having serum glucose ≥200 mg/dL after 2 hours of glucose intake were considered diabetic and selected for further pharmacological studies. The rats were allowed to continue to feed on their respective diets until the end of the study (16).
The experimental animals were divided into three groups, each group comprising six rats designated as follows: (1) group 1 served as control rats (non-DM control); (2) group 2 served as diabetic control rats (STZ+vehicle); and (3) group 3 served as diabetic treatment rats administered with C70PLY4 (2 mg/kg/3 days) in aqueous suspension i.p. for 30 days (STZ+C70PLY4). By the end of the experiment, animals were sacrificed and blood samples, muscle and liver were obtained.
(§2) The levels of insulin, sICAM-1, sVCAM-1, and E-selectin in serum were determined by using sandwich ELISA (R&D) according to manufacturer's protocols.

HUVECs [2] = assay: Cell apoptosis, TUNEL assay in HUVECs; type: cell-based, human; conditions: compared to control cells
Experimental: Cell apoptosis was detected by using commercial terminal deoxynucleotidyl transferase-dUTP nick end labeling (TUNEL) and caspase-3 activity kits, i.e., Apo-BrdU in Situ DNA Fragmentation Assay Kit (BioVision) and NucView™ 488 Caspase-3 Enzyme Substrate (Biotium). In brief, after incubation with M199 media in the presence or absence of […] various PLY peptides, at 37° C., 5% CO2 for 1 hour, HUVECs were washed with PBS and fixed with fixation buffer on ice for 20 min. Cells were then soaked in 70% alcohol for 1 hr. After 2 times of wash by washing buffer, cells were incubated in DNA labeling solution for 60 min at 37° C. Cells were then treated with rinse buffer and incubated with antibody buffer for 30 min at room temperature. The cell nuclei were stained with propidium iodide for 30 min. Samples were observed by fluorescent microscopeand photographed charge-coupled device (CCD) camera.

HUVECs [3] = type: cell-based, human
Experimental: Cell viability was detected by a methanethiosulfonate (MTS) assay. In brief, 2×10^4 HUVECs were seeded to a 48-well plates in 100 μl endothelial cell medium (ECM, ScienCell Research Laboratory, Cat. 1001, USA) per well and incubated for 24 hrs. The media was removed and the cells were then incubated with media having 2% fetal bovine serum (FBS), in the absence or presence of various peptides, such as PLY, PLY123, PLY4, C70PLY4 or N35PLY4, at a concentration of 1, 10 or 100 nM. After incubation for 18 hours, the media was removed and 20 μl MTS reagents (20%) were added to each well in the final volume of 100 μl and placed in incubator for 1 hours. The optical density was measured at 490 nm using a plate reader.

[4] = Serum insulin level (sandwich ELISA) in HFD-induced, STZ-injected type 2 diabetic rats; type: in vivo, Sprague-Dawley rats; conditions: STZ-injected HFD-fed rats, 2 mg/kg/3 days i.p. for 30 days, compared to STZ+vehicle
Experimental: as §1, with “(16). […]” for “(16).”
as §2

QDLTAHFTTSIPLKGNVRNLSVKIRECTGLAWEWWRTVYEKTDLPLVRKRTISIWGTTLYPQVEDKVEND [C70PLY4]
serum sE-selectin level [1]: decreased
serum sICAM-1 level [1]: decreased sICAM-1
serum sVCAM-1 level [1]: decreased
apoptotic potential, TUNEL assay (HUVECs [2]): no apoptotic potential
toxicity to HUVECs (FIG. 15) (HUVECs [3]; MTS assay, 1, 10 or 100 nM, statement for high concentration (100 nM)): no toxic effects
toxic effects to HUVECs at 100 nM or below (HUVECs [3]; MTS assays, 100 nM or below, data not shown): no toxic effects
blood insulin levels [4]: increased blood insulin levels
